# Read-outs that look alike come from different tables or passages of the source.
# Tests used:
# 5-HT2B (h) = 5-HT2B (h) (Homo sapiens, UniProt P41595); assay: Pharmacology profiling: 5-HT2B (h) (agonist RL); format: binding; conditions: read-out: 5-HT2B (h) (agonist RL): % inhibition @10 µM
# From the text: (§1) Cosmetics Europe’s Systemic Toxicity Taskforce (SysTox-TF) has extended the list of targets in an in vitro screen originally described by [Bowes et al. (2012)] to assess the effects of cosmetic chemicals on target molecules. The approach was based on the knowledge that various targets of pharmacological interest have been linked to human adverse drug reactions, and that screening of these has helped the pharma industry in identifying drug candidates with acceptable human safety profiles ([Bowes et al., 2012]; [Scott et al., 2022]). The methods used by the pharma industry were adapted for use in cosmetic chemical NGRA. A final list of 83 target assays were considered suitable for cosmetic chemical safety testing (see Supplementary Materials S1.7). The targets were receptors, ion channels, transporters and enzymes identified by the pharma industry as linked to human adverse drug reactions, supplemented by additional targets that have been reasoned to be linked to systemic toxicities of chemicals in animals. Chemicals that are flagged for a target are tested in follow-up dose-response assays to establish potency of the interaction. […]. [Valentin et al., 2018]; [Dodson et al., 2021]). […].
# (§2) assay’s reference compound was set to 100%. For antagonist assays, the basal signal (exposure to fixed concentration of agonist only) was set to 100%. Activity of the samples was scaled accordingly, […]
# (§3) Using these graphs, lowest […]
# (§4) compound activity for antagonist assays.
# (§5) S1.7. Pharmacology profiling assays […]
# (§6) reasoned to link to pathological effects. […]
# (§7) around the control level. […]
# (§8) determine the potency (IC50).
# (§9) Supplementary Table S4 Pharmacology profiling assay panel. […]
# COX1 (h) = COX1 (h) (Homo sapiens, UniProt P23219); assay: Pharmacology profiling: COX1 (h); format: biochemical; conditions: read-out: COX1 (h): % inhibition @10 µM
# From the text: (§10) targets. The list of targets included the original panel of 44 targets (including receptors, ion channels,
# (§11) transporters and enzymes) recommended by 4 major pharmaceutical companies as significant
# (§12) reasoned to link to pathological effects. Results showing an inhibition or stimulation higher than 50%
# (§13) are considered to represent significant effects (i.e. a “hit”).
# (§14) and 50% are indicative of weak to moderate effects and results showing an inhibition (or stimulation)
# (§15) around the control level. For several targets, additional concentration effect assays were conducted to
# (§16) determine the potency (IC50). The concentrations tested (in duplicate) ranged between 30 nM and 100
# Thyroid peroxidase = system: Thyroid peroxidase; parameters: method as in ToxCast; conditions: ref ToxCast, cited from earlier work; as to Thyroid pathway: Thyroid peroxidase, Call: key: Pos = positive result; Neg = negative result; Inc = uncertain/inconclusive result
# U2-OS cells = conditions: human, 24 h
# Description: using the U2-OS based CALUX cytotox bioassay. The cytotoxicity of each test chemical was assessed using the U2-OS based cytotoxicity CALUX bioassay. Concentrations causing >20% reduction of luminescence were considered cytotoxic.
# cytotoxicity (relative induction in the cytotoxicity CALUX bioassay > 80%) were used for final
# evaluation of analysis results.
# induction in the cytotox CALUX bioassay > 80%) were used for final evaluation of analysis results.
# All analysis results were expressed in molar (M) final in well.
# For the analyses in the presence of rat liver S9, 0.03% (v/v) of PB/BNF induced rat liver
# S9 mix (including NADPH and an NADPH-regenerating system) was added to the cells directly after
# addition of the compounds, which remained there for the duration of the exposure period (24 h) (van
# ER = system: ER; parameters: method as in Opera; conditions: experimental call listed in the Opera output; ref Opera; cited from earlier work
# MAO-A = biological target: T1, MAO-A (Rattus norvegicus, UniProt P21396); assay: Pharmacology profiling: MAO-A (antagonist RL); format: binding
# T1 sequence (P21396 1-526): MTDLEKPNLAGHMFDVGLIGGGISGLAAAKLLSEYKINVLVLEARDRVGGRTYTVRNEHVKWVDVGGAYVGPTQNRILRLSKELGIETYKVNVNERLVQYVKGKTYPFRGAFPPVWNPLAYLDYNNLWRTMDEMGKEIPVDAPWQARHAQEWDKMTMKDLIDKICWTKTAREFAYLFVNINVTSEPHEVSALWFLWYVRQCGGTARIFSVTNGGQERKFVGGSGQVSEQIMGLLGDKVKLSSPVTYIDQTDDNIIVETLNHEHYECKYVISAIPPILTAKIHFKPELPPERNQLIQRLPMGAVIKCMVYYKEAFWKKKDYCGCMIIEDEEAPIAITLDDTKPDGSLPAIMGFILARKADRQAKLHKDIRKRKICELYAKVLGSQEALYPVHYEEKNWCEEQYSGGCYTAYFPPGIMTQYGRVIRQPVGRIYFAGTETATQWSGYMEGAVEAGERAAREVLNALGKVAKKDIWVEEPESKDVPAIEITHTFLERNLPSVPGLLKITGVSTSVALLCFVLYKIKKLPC
# From the text: as §10, §11, §12, §13, §14, §15, §16
# HepG2 cells = assay: cells; format: cell-based; conditions: for AC50: Homo sapiens, HepG2, 24 h
# Estrogen pathway = system: Estrogen pathway; parameters: method as in ToxCast; conditions: ref ToxCast, cited from earlier work; as to Estrogen pathway: Cell Proliferation, Call: key: Pos = positive result; Neg = negative result; Inc = uncertain/inconclusive result; as to Estrogen pathway: Dimerization, Call: key: Pos = positive result; Neg = negative result; Inc = uncertain/inconclusive result
# [1] = format: in vitro ADME; conditions: human, 24 h
# From the text: Additional information was required to determine whether an adjustment factor was needed to account for a difference in the absorption of daidzein after topical application and whether the absorption was impacted by the use of the intended (body lotion base) formulation. […]. […] […]. The results of this study are described in detail by [Géniès et al. (2024)] and are summarized here.
# PDE4D2 (h) = PDE4D2 (h) (Homo sapiens, UniProt Q08499); assay: Pharmacology profiling: PDE4D2 (h) (phosphodiesterase 4D); format: biochemical; conditions: read-out: PDE4D2 (h) (phosphodiesterase 4D): % inhibition @10 µM
# From the text: as §1, §2, §3, §4, §5, §6, §7, §8, §9
# Aromatase = system: Aromatase; parameters: method as in ToxCast; conditions: ref ToxCast; cited from earlier work; also: key: Pos = positive result; Neg = negative result; Inc = uncertain/inconclusive result
# HepaRG cells = assay: Transcriptomics (TempO-Seq, BMD analysis) in HepaRG cells; format: cell-based
# Description: These differed with respect to the number of genes passing all filters in each pathway (3 versus 5 genes). […] Therefore, we captured pathways which fulfilled both criteria.
# HepG2 (human hepatoblastoma) , MCF-7 (human breast adenocarcinoma) cells supplied by
# Public Health England European Collection of Cell Cultures (ECACC, Salisbury, UK). Differentiated
# HepaRG cells (HPR116, Lot HPR116239 -TA08) were from Biopredic International (Rennes, France).
# Test chemicals were prepared in DMSO as serial dilutions, resulting in concentrations in media of
# biological replicates were treated with the appropriate dose of co mpound for 24 h prior to cell lysis.
# Biospyder human whole genome panel version 1 (https://biospyder.com).
# Gene normalization and analysis
# expression values for each probe were normalized by applying DESEQ2 normalization. A pseudo-
# read-count of 1.0 was added to each normalized expression value, and then the values were log2
# transformed . Analyses performed included Gene and Pathway, Dose Response and Network
# monotonic increasing/decreasing trend were those which confirmed to the criteria : William’s trend
# Those genes were then used in categorical (pathway) analysis for the Gene Ontology (GO) terms and
# REACTOME pathways. Significant dose responsive pathways were determined according to : Fisher’s
# [2] = HepaRG, 24 h, pathway differs per chemical
# Sequence of COX1 (h) (P23219 24-599): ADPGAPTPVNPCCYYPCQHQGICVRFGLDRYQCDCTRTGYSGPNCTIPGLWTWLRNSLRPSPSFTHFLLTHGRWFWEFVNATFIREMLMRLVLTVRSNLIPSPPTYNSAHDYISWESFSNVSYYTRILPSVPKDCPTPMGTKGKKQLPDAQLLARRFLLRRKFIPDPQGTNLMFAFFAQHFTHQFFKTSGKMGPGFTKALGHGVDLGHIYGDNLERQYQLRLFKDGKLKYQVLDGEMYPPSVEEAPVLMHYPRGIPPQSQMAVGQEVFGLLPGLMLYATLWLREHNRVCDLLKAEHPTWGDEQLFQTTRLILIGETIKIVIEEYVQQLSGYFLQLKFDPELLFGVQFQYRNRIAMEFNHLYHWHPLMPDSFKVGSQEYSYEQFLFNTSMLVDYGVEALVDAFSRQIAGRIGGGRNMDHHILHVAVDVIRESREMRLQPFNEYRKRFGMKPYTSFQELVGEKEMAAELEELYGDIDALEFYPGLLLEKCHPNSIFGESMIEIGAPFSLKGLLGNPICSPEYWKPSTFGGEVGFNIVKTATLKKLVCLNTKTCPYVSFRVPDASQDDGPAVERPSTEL
# Sequence of PDE4D2 (h) (Q08499 303-809): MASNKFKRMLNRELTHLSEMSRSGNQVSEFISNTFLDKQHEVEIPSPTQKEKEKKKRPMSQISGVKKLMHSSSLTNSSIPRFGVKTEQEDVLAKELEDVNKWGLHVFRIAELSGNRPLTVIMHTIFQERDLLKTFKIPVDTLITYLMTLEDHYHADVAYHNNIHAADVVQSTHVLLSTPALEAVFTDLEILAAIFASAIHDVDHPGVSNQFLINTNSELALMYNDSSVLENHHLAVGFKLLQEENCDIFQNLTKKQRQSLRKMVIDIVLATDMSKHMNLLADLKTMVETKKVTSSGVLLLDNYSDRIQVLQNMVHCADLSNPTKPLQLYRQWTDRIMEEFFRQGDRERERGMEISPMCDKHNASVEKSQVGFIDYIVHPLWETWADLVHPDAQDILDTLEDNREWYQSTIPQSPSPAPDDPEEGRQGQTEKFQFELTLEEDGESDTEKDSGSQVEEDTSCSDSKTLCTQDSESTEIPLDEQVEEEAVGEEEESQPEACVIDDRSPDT
# Sequence of 5-HT2B (h) (P41595 whole entry): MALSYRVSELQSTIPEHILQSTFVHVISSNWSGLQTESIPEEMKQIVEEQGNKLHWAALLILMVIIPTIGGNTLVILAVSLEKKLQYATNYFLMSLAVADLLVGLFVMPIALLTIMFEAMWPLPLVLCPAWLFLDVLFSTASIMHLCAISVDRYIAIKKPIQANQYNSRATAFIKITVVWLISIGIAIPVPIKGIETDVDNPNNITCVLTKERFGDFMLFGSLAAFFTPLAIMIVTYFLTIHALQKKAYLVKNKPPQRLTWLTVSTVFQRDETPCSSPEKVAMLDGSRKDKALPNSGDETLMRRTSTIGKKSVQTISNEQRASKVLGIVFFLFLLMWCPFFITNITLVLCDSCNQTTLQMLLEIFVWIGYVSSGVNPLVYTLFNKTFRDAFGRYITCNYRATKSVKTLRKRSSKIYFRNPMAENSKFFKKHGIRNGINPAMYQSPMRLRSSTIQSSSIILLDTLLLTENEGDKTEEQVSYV
compound,measurement,setting,value
"O=c1c(-c2ccc(O)cc2)coc2cc(O)ccc12 [Daidzein, DAIDZEIN]",inhibition at 10 µM,5-HT2B (h),44.1%
same,inhibition at 10 µM,COX1 (h),44.7%
same,"Thyroid pathway: Thyroid peroxidase, Call",Thyroid peroxidase,Pos
same,AC50,"Thyroid peroxidase; read-out: Thyroid pathway: Thyroid peroxidase, AC50",10.2 µM
same,"Cytotoxicity LOEC, +S9",U2-OS cells,>−5 Log M
same,"Cytotoxicity LOEC, −S9",U2-OS cells,>−5 Log M
same,"ER agonist, Experimental",ER,Active (medium)
same,"ER binding, Experimental",ER,Active (weak)
same,IC50,MAO-A,9.18 µM
same,inhibition at 10 µM,MAO-A; read-out: MAO-A (antagonist RL): % inhibition @10 µM,49.6%
same,Apoptosis & necrosis: cell membrane permeability: Effect,HepG2 cells,decrease
same,AC50,HepG2 cells; read-out: Apoptosis & necrosis: caspase 3/7: AC50,> 100 µM
same,AC50,HepG2 cells; read-out: Apoptosis & necrosis: cell membrane permeability: AC50,> 100 µM
same,AC50,HepG2 cells; read-out: Cellular ATP: AC50,> 100 µM
same,AC50,HepG2 cells; read-out: ER stress panel 1: ER integrity: AC50,> 100 µM
same,AC50,HepG2 cells; read-out: Inflammation & pH: HIF1α: AC50,> 100 µM
same,AC50,HepG2 cells; read-out: Inflammation & pH: intracellular pH: AC50,> 100 µM
same,AC50,HepG2 cells; read-out: Mitochondrial mass: AC50,> 100 µM
same,AC50,HepG2 cells; read-out: Mitochondrial membrane potential: AC50,55.3 µM
same,AC50,HepG2 cells; read-out: Nuclear size: AC50,> 100 µM
same,AC50,HepG2 cells; read-out: Osmotic & heat shock: NFAT: AC50,> 100 µM
same,AC50,HepG2 cells; read-out: Osmotic & heat shock: hsp70: AC50,> 25 µM
same,AC50,HepG2 cells; read-out: Oxidative stress: HMOX1: AC50,77.6 µM
same,AC50,HepG2 cells; read-out: Oxidative stress: NRF2: AC50,> 100 µM
same,Apoptosis & necrosis: caspase 3/7: MEC,"HepG2 cells; human, 24 h",36.9 µM
same,Apoptosis & necrosis: cell membrane permeability: MEC,"HepG2 cells; human, 24 h",51.5 µM
same,"Cell stress LOEC, ↓ in mitochondrial membrane potential","HepG2 cells; human, 24 h",10.8 µM
same,Cellular ATP: MEC,"HepG2 cells; human, 24 h",89.4 µM
same,ER stress panel 1: ER integrity: MEC,"HepG2 cells; human, 24 h",82.6 µM
same,Inflammation & pH: HIF1α: MEC,"HepG2 cells; human, 24 h",32.3 µM
same,Inflammation & pH: intracellular pH: MEC,"HepG2 cells; human, 24 h",26.3 µM
same,Mitochondrial mass: MEC,"HepG2 cells; human, 24 h",25.9 µM
same,Mitochondrial membrane potential: MEC,"HepG2 cells; human, 24 h",10.8 µM
same,Nuclear size: MEC,"HepG2 cells; human, 24 h",69.2 µM
same,Osmotic & heat shock: NFAT: MEC,"HepG2 cells; human, 24 h",25.0 µM
same,Osmotic & heat shock: hsp70: MEC,"HepG2 cells; human, 24 h",3.3 µM
same,Oxidative stress: HMOX1: MEC,"HepG2 cells; human, 24 h",44 µM
same,Oxidative stress: NRF2: MEC,"HepG2 cells; human, 24 h",30.4 µM
same,Phospholipidosis: MEC,"HepG2 cells; human, 24 h",14.2 µM
same,Steatosis: MEC,"HepG2 cells; human, 24 h",77.4 µM
same,"Estrogen pathway: Cell Proliferation, Call",Estrogen pathway,Pos
same,"Estrogen pathway: Dimerization, Call",Estrogen pathway,Pos
same,"Estrogen pathway: Receptor binding, Call",Estrogen pathway,Pos
same,"Estrogen pathway: Reporter protein Agonist, Call",Estrogen pathway,Pos
same,"Estrogen pathway: Reporter protein Antagonist, Call",Estrogen pathway,Neg
same,"Estrogen pathway: mRNA induction, Call",Estrogen pathway,Pos
same,AC50,"Estrogen pathway; read-out: Estrogen pathway: Cell Proliferation, AC50",0.15 µM
same,AC50,"Estrogen pathway; read-out: Estrogen pathway: Dimerization, AC50",0.77 µM
same,AC50,"Estrogen pathway; read-out: Estrogen pathway: Receptor binding, AC50",0.17 µM
same,AC50,"Estrogen pathway; read-out: Estrogen pathway: Reporter protein Agonist, AC50",1.68 µM
same,AC50,"Estrogen pathway; read-out: Estrogen pathway: mRNA induction, AC50",0.15 µM
same,Metabolized in the skin after 24 h,[1],55%
same,inhibition at 10 µM,PDE4D2 (h),0.04%
same,"Steroidogenesis: Aromatase, Call",Aromatase,Neg
same,"BMD/NOEC, gene pathway deregulation",HepaRG cells; HepaRG cells,33.1 µM
same,"Lowest median BMD, 3 genes passing all filters",HepaRG cells; [2],33.1 µM
same,"Lowest median BMD, >5 genes passing all filters",HepaRG cells; [2],39.3 µM
same,BMD relating to estrogen effects,"HepaRG cells; HepaRG, 24 h, pathway named in the cell",None

# Reference: paper PMC11220827 (Frontiers in Pharmacology, 2024)
